Here are results for six compounds from patent US5730876A, “Separation and purification of low molecular weight chitosan using multi-step membrane separation process” (You; Hyang-Ja, priority 1997, dated 1998).

Structures can show the parent of a compound that is named as a salt.

What is called solubility is the concentration that dissolves in the medium under given conditions.

Data set [1] is described as follows: Solubility in water of chitosan oligosaccharides (Table 1). The class given is physicochemical.
Data set [2] in a line: CH3OH solubility of chitosan oligosaccharides (Table 1). It is filed as physicochemical. The settings on record: methanol, organic solvent or mixture.
[3] abbreviates: in water, read-out: Solubility (% in water).
Setting [4] is: CH3OH, 20° C., read-out: CH3OH Solubility.

As to `N[C@H]1[C@H](O[C@H]2[C@H](O)[C@@H](N)[C@H](O[C@H]3[C@H](O)[C@@H](N)[C@H](O[C@H]4[C@H](O)[C@@H](N)[C@H](O[C@H]5[C@H](O)[C@@H](N)[C@H](O[C@H]6[C@H](O)[C@@H](N)C(O)O[C@@H]6CO)O[C@@H]5CO)O[C@@H]4CO)O[C@@H]3CO)O[C@@H]2CO)O[C@H](CO)[C@@H](O)[C@@H]1O` (stereo partly drawn) [Chitohexose HCl], the results for the solubility in data set [1] (setting [3]) and in data set [2] (setting [4]) were 680 mg/mL and 17 mg/mL, respectively.
Regarding `Cl.N[C@H]1C(O)O[C@H](CO)[C@@H](O)[C@@H]1O` (stereo partly drawn) [D-Glucosamine HCl], the values for the solubility in data set [1] (water) and in data set [2] were 371 mg/mL and 4 mg/mL, respectively.
As to `N[C@H]1[C@H](O[C@H]2[C@H](O)[C@@H](N)[C@H](O[C@H]3[C@H](O)[C@@H](N)[C@H](O[C@H]4[C@H](O)[C@@H](N)C(O)O[C@@H]4CO)O[C@@H]3CO)O[C@@H]2CO)O[C@H](CO)[C@@H](O)[C@@H]1O` (stereo partly drawn) [Chitotetrose HCl], the solubility in data set [1] (setting [3]) turned out to be 1580 mg/mL; in data set [2] (setting [4]), 450 mg/mL.
The matching figures for `N[C@H]1[C@H](O[C@H]2[C@H](O)[C@@H](N)[C@H](O[C@H]3[C@H](O)[C@@H](N)C(O)O[C@@H]3CO)O[C@@H]2CO)O[C@H](CO)[C@@H](O)[C@@H]1O` (stereo partly drawn) [Chitotriose HCl]: 1770 mg/mL and 370 mg/mL.
In the case of `N[C@H]1[C@H](O[C@H]2[C@H](O)[C@@H](N)[C@H](O[C@H]3[C@H](O)[C@@H](N)[C@H](O[C@H]4[C@H](O)[C@@H](N)[C@H](O[C@H]5[C@H](O)[C@@H](N)C(O)O[C@@H]5CO)O[C@@H]4CO)O[C@@H]3CO)O[C@@H]2CO)O[C@H](CO)[C@@H](O)[C@@H]1O` (stereo partly drawn) [Chitopentose HCl], the solubility was 860 mg/mL in data set [1] (setting [3]) and 46 mg/mL in data set [2] (setting [4]).
With `N[C@H]1[C@H](O[C@H]2[C@H](O)[C@@H](N)C(O)O[C@@H]2CO)O[C@H](CO)[C@@H](O)[C@@H]1O` (stereo partly drawn) [Chitobiose HCl], the solubility in data set [1] (setting [3]) amounted to 1900 mg/mL; in data set [2] (setting [4]) it was 54 mg/mL.
